This is an account of results in ChEMBL document CHEMBL1143210, “2-Substituted 4-, 5-, and 6-[(1E)-3-oxo-3-phenylprop-1-en-1-yl]pyridazin-3(2H)-ones and 2-substituted 4,5-bis[(1E)-3-oxo-3-phenylprop-1-en-1-yl]pyridazin-3(2H)-ones as potent platelet aggregation inhibitors: design, synthesis, and SAR studies” (Bioorg Med Chem Lett, 2008).

The first experiment concerns Blood. The experiment is described as follows: Inhibition of thrombin-induced platelet aggregation in human blood at 100 uM by turbidimetric method. It is filed as functional.
A word on the inhibition: it is the share of the control response that was lost under treatment. As to `O=C(/C=C/c1ccnn(Cc2ccccc2)c1=O)c1ccccc1`, the inhibition at 100 µM turned out to be 40%.

For a further experiment, the system named is Blood. The experiment can be described thus: Inhibition of thrombin-induced platelet aggregation in human blood by turbidimetric method. Format: functional, tissue-based.
Usually IC50 stands for the point on the concentration scale where inhibition reaches its midpoint. A high value points to weaker potency in that assay. As to `O=C(/C=C/c1cnn(-c2ccccc2)c(=O)c1)c1ccccc1`, the IC50 stood at 3.3 µM.
On to `Cn1ncc(/C=C/C(=O)c2ccccc2)cc1=O`, for which 15.7 µM corresponded to half-maximal inhibition (IC50).
Same read-out and setting: the same measure for `CN1CC(/C=C/C(=O)c2ccccc2)=C(/C=C/C(=O)c2ccccc2)C=N1`: 6.15 µM; for `O=C(/C=C/C1=C(/C=C/C(=O)c2ccccc2)CN(c2ccccc2)N=C1)c1ccccc1`: 1.98 µM.
On the same count and under the same terms, the same measure for `O=C(/C=C/c1ccc(=O)n(Cc2ccccc2)n1)c1ccccc1`: 60 µM; for `O=C(/C=C/c1ccc(=O)n(-c2ccccc2)n1)c1ccccc1`: 12 µM.
Still for that read-out and setting: the same measure for `Cn1nc(/C=C/C(=O)c2ccccc2)ccc1=O`: 13.4 µM.
On to `Cn1nccc(/C=C/C(=O)c2ccccc2)c1=O`, for which the midpoint of inhibition, the IC50, lay at 37.1 µM. This IC50 lies about 2.8-fold higher than the previous one.
Same read-out and setting: the same measure for `O=C(/C=C/c1cnn(Cc2ccccc2)c(=O)c1)c1ccccc1`: 4.2 µM.
Same read-out and setting: in the case of `O=C(/C=C/c1ccnn(-c2ccccc2)c1=O)c1ccccc1` it was 17.6 µM; in that of `O=C(/C=C/c1ccccc1)c1ccccc1` [CHALCONE], 163 µM; in that of `Cc1[nH]c(=O)c(C#N)cc1-c1ccncc1` [MILRINONE], 4.7 µM.
The same measure, in the same setting: the same measure for `O=C1C(CC[S+]([O-])c2ccccc2)C(=O)N(c2ccccc2)N1c1ccccc1` (centres undefined) [SULFINPYRAZONE]: 509 µM.
